From PubChem BioAssay (NCI)
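A five-concentration, 48-hour dose response in 96-well plates underlies each endpoint, interpolated linearly between surrounding concentrations. GI50 = concentration required for 50% inhibition of growth. TGI marks complete inhibition of growth.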

Experiments:
Assay in all cases: inhibition of tumour cell growth, NCI panel, 48 h
A498 renal = test system: A498 renal
ACHN renal = test system: ACHN renal
DU-145 prostate = test system: DU-145 prostate
HOP-92 NSCLC = test system: HOP-92 NSCLC
LOX IMVI melanoma = test system: LOX IMVI melanoma
MDA-MB-231 breast = test system: MDA-MB-231 breast
OVCAR-4 ovarian = test system: OVCAR-4 ovarian
OVCAR-5 ovarian = test system: OVCAR-5 ovarian
OVCAR-8 ovarian = test system: OVCAR-8 ovarian
RXF 393 renal = test system: RXF 393 renal
SF-539 CNS = test system: SF-539 CNS
SK-MEL-28 melanoma = test system: SK-MEL-28 melanoma
SNB-75 CNS = test system: SNB-75 CNS
TK-10 renal = test system: TK-10 renal
UACC-62 melanoma = test system: UACC-62 melanoma
UO-31 renal = test system: UO-31 renal

C=C(C)[C@@H]1CC[C@]2(COCCCNCCCN)CC[C@]3(C)[C@H](CC[C@@H]4[C@@]5(C)CC[C@H](O)C(C)(C)[C@@H]5CC[C@]43C)[C@@H]12
GI50 (A498 renal): 1.85 µM | TGI (A498 renal): 4.21 µM | GI50 (ACHN renal): 1.78 µM | TGI (ACHN renal): 3.24 µM | GI50 (DU-145 prostate): 1.94 µM | TGI (DU-145 prostate): 3.49 µM | GI50 (HOP-92 NSCLC): 1.52 µM | TGI (HOP-92 NSCLC): 3.14 µM | GI50 (LOX IMVI melanoma): 0.234 µM | TGI (LOX IMVI melanoma): 2.28 µM | GI50 (MDA-MB-231 breast): 1.85 µM | TGI (MDA-MB-231 breast): 3.49 µM | GI50 (OVCAR-4 ovarian): 1.96 µM | TGI (OVCAR-4 ovarian): 3.73 µM | GI50 (OVCAR-5 ovarian): 1.75 µM | TGI (OVCAR-5 ovarian): 3.23 µM | GI50 (OVCAR-8 ovarian): 2.14 µM | TGI (OVCAR-8 ovarian): 4.88 µM | GI50 (RXF 393 renal): 1.57 µM | TGI (RXF 393 renal): 2.96 µM | GI50 (SF-539 CNS): 1.77 µM | TGI (SF-539 CNS): 3.39 µM | GI50 (SK-MEL-28 melanoma): 1.75 µM | TGI (SK-MEL-28 melanoma): 3.37 µM | GI50 (SNB-75 CNS): 1.73 µM | TGI (SNB-75 CNS): 3.37 µM | GI50 (TK-10 renal): 1.84 µM | TGI (TK-10 renal): 3.56 µM | GI50 (UACC-62 melanoma): 1.77 µM | TGI (UACC-62 melanoma): 3.39 µM | GI50 (UO-31 renal): 1.6 µM | TGI (UO-31 renal): 3.03 µM
